Test [1] has as its system spontaneous motility of proximal colon. The test can be described thus: Colonic motility in vivo: intraluminal pressure recording in anaesthetised rat. Conditions: urethane-anaesthetised male Wistar rats; intravenous administration; 3 μmol/kg. The procedure:
Male albino rats, Wistar strain (Charles River UK) 300-500 g were anaesthetised with urethane. A segment of proximal colon was prepared for intraluminal pressure recording after the method of Maggi and Meli (Maggi, C. A. and Meli, A. (1982), J. Pharmacol. Methods 8, 39-46). The activity of the compound (V) was assessed from its action on the spontaneous motility of the preparation after intravenous administration.

Test [2] relates to spontaneous contractile responses of circular muscle from the proximal colon. The test can be described thus: Colonic motility in vitro: isolated circular muscle of rat proximal colon. In kind it is cell-based. Conditions: rat proximal colon circular muscle in Krebs solution, isolated tissue bath. The procedure: Segments of circular muscle cut from the proximal colon of rats were mounted in Krebs solution in isolated tissue baths after the methods of Couture et al. (Couture R. et al. (1981), Can. J. Physiol. Pharmacol., 59, 957-964; and Couture R. et al., (1982), Pharmacol., 24, 230-242). The activity of the compound V was assessed from the effect on the spontaneous contractile responses generated by this tissue.

In test [3] the test system is proximal duodenum acid disposal capacity. The test can be described thus: Acid disposal capacity of the rat proximal duodenum (anti-ulcer activity). To be noted: significance P<0.05. In kind it is in vivo. The procedure: Anti-ulcer activity may be related to the enhanced capacity to dispose of gastric acid. Acid disposal capacity may be enhanced by increased intestinal secretions and enhanced acid disposal capacity is believed to be useful in the treatment of peptic ulcer disease. Method for estimating the acid disposal capacity of the rat proximal duodenum Male Wistar rats, 180-250 g bodyweight, fasted overnight, are anaesthetized with urethane (150 mg/100 g bodyweight i.m.). The trachea is cannulated, and a gastric cannula, 0.5 cm i.d., 3 cm long, is inserted into the non-glandular forestomach via a mid-line abdominal incision. The intragastric cannula is exteriorized via a stab wound in the body wall. A triple lumen catheter, 0.3 cm o.d., is passed via the gastric cannula through the pylorus. The duodenum is ligated 1 cm below the pylorus, and the pylorus ligated around the cannula, thus creating a 1 cm proximal duodenal pouch excluding pancreatic and biliary secretions. The two ligatures enclosing the duodenal pouch are placed so as to avoid occluding the blood supply to the duodenal segment. Gastric secretions are allowed to drain freely from the gastric cannula. […] Outflow pH is recorded throughout the experiment. […] A group size of 6 animals or larger is used and the effect of compounds on the output pH compared to control data determined. […]

These results are taken from patent US4737487A, “VIP type peptides” (Beecham Group p.l.c., priority 1984, dated 1988).

Where a SMILES comes first, the peptide text is derived from it. [ ]: non-standard residue; d: D form. Nle = CCCC[C@H](N)C(=O)O

In the case of `CCCC[C@H](NC(=O)[C@H](CCC(N)=O)NC(=O)[C@@H](N)CCCCN)C(=O)N[C@@H](C)C(=O)N[C@H](C(=O)N[C@@H](CCCCN)C(N)=O)C(C)C` [V, H-Lys-Gln-Nle-Ala-Val-Lys-NH2] (H-KQ[Nle]AVK-NH2), the “action on the spontaneous motility of the proximal colon preparation” value in test [1] is reported as “active”. Moreover, the “ED50, effect on spontaneous contractile responses” value in test [2] is given as 10^-5 M.
In the case of `CCCC[C@H](NC(=O)[C@H](CCC(N)=O)NC(=O)[C@@H](N)CCCCN)C(=O)N[C@@H](C)C(=O)N[C@@H](CC(C)C)C(=O)N[C@@H](CCCCN)C(N)=O` [Example 4, H-Lys-Gln-Nle-Ala-Leu-Lys-NH2.Acetate] (H-KQ[Nle]ALK-NH2), the “acid disposal (output pH compared to control)” value is reported as “significant increase” in test [3] (30 nmol/kg/h i.v. infusion, input pH 2.5 on first pass); “significant increase” in test [3] (150 nmol/kg/h i.v. infusion, input pH 3 and 2.5 on first pass and input pH 2.5 on second pass).
